pIC50: −log10 of the molar value.
What was measured:
[1] = tested on: DBA/1 mice with established collagen-induced arthritis; experiment: Effect of tranilast on established collagen-induced arthritis (Example 1); assay type: in vivo, mouse; conditions: for Histological score (mean ± SE): 10 days, score 0-3
Protocol: FIG. 1 is a graphical representation of the amelioration of established collagen-induced arthritis (CIA) by intraperitoneal administration of tranilast. DBA/1 mice were immunised with bovine type II collagen in complete Freund's adjuvant in order to induce arthritis. After onset of clinical disease mice were randomly assigned to different treatment groups and given tranilast at 100, 200 or 400 mg/kg/day or vehicle control. Clinical scores were assessed throughout the treatment period using a clinical scoring system described in the Examples. The maximum possible score per mouse is 8. There were 7-10 mice per treatment group.
FIG. 2 is a graphical representation of the amelioration of established CIA by administration of tranilast. DBA/1 mice were immunised with bovine type II collagen in complete Freund's adjuvant in order to induce arthritis. After onset of clinical disease mice were randomly assigned to different treatment groups and given tranilast at 100, 200 or 400 mg/kg/day (i.p.) or vehicle control. Paw-swelling was measured throughout the treatment. There were 7-10 mice per treatment group.
Bovine CII was purified and prepared as previously described (9) and solubilised by stirring overnight at 4° C. in 0.1M acetic acid.
Male DBA/1 mice (7-8 animals/group) were immunised i.d. at 8-12 weeks of age with bovine CII (200 μg/mouse), emulsified in CFA (Difco Laboratories, West Moseley, UK). Beginning at 14 days after immunisation, mice were inspected daily for signs of arthritis and treatment was initiated on day 1 of arthritis. This research was approved by the local Ethical Review Process Committee and by the Home Office of the United Kingdom.
Tranilast was dissolved in 1% NaHCO3 by heating to 70° C. and injected i.p. at 100, 200 or 400 mg/kg/day.
The development of arthritis was assessed daily for the duration of the experiment. The clinical severity of arthritis was graded as follows, 0=normal, 1=slight swelling and/or erythema, 2=pronounced oedematous swelling. Each limb was graded, allowing a maximal clinical score of 8 for each animal. Swelling of hind paws was recorded with a pair of calipers. All clinical evaluations were performed in a blinded manner.
At the end of the treatment period the mice were killed, bled and their joints were processed for histology. The first limb to show clinical evidence of arthritis was removed, fixed, decalcified, and embedded before sectioning and staining with haemotoxylin and eosin. Saggital sections were examined by microscopy in a blinded fashion and joints were graded as follows: 0=normal; 1=mild synovitis without cartilage loss or bone erosion; 2=moderate or severe synovitis with erosions present but normal joint architecture intact; 3=severe synovitis with extensive erosions and normal joint architecture disrupted.
DBA/1 mice were immunised with bovine type II collagen in complete Freund's adjuvant in order to induce arthritis. After onset of clinical disease mice were randomly assigned to different treatment groups and given tranilast at 100, 200 or 400 mg/kg/day (i.p.) or vehicle control. Treatment was continued for 10 days after which time the mice were killed and paws were processed for histology. Joints were graded histologically in a blinded fashion.

[2] = tested on: inguinal lymph node cells; experiment: Cytokine production by draining (inguinal) lymph node cells of treated CIA mice (ELISA); assay type: in vivo, mouse; conditions: for IL-5 production by lymph node cells: treated mice (FIG. 8)
Protocol: FIG. 8 is a graphical representation depicting that mice with established CIA were treated for 10 days with 3,4-DAA or vehicle control. Mice were then killed and draining (inguinal) lymph node cells were cultured for 72 h in the absence or presence of type II collagen.
Inguinal lymph nodes were excised from Tranilast-treated and control mice. Alternatively, inguinal lymph nodes were removed from untreated arthritic mice (day 1-5 of arthritis) and Tranilast was added in vitro. In both cases, LNC were cultured in RPMI 1640 containing FCS (10% v/v), 2-mercaptoethanol (20 μM), L-glutamine (1% w/v), penicillin (100 U/ml) and streptomycin (100 μg/ml) in the presence or absence of type II collagen (50 μg/ml). Secreted cytokines (IFN-γ, IL-5, TNFα and IL-10) were measured after 72 h. by ELISA. In brief, 96 well ELISA plates were coated with the respective capture antibody, blocked with bovine serum albumin (2% w/v), and then incubated with LNC culture supernatants (neat) overnight at 4° C. After washing, bound cytokines were detected using biotinylated detect antibodies. A standard curve was generated using known concentrations of the appropriate recombinant cytokine and the concentrations of cytokines present in culture supernatants were estimated by reference to the standard curve.

[3] = tested on: B cells stimulated with anti-CD40; experiment: Purified B cell proliferation, anti-CD40, 3H-thymidine incorporation (Example 4); assay type: cell-based, mouse
Protocol: (§1) FIG. 10 is a graphical representation depicting that 3,4-DAA and 3-HAA inhibit B and T cell proliferation in vitro. Purified B and T cells were stimulated for 72 h with anti-CD40 (a), or anti-CD3/anti-CD28 (b) respectively, in the presence of varying doses of 3,4-DAA, or 3-HAA.
(§2) A single cell suspension was prepared from spleen by mincing through a cell strainer, and erythrocytes were lysed using an ammonium chloride solution (Sigma, St Louis, Mo., USA). B cells were positively enriched by using anti-IgM MACS microbeads, and T cells were positively enriched using anti-CD4 MACS microbeads and the MACS system, according to the manufacturer's guidelines (Miltenyi Biotec, Bergisch Gladbach, Germany). Purity was assessed by flow cytometric analysis (B cell>90% CD19+, T cell>90% CD4+). Cells were cultured at 5×10^5 cells/ml in 200 μl complete RPMI, as above, in a flat bottom 96-well plate and cultured for 72 h. B cells were stimulated with anti-CD40 monoclonal antibody (10 μg/ml; BD), and T cells were stimulated with 5 μg/ml plate-bound anti-CD3 (BD), 5 μg/ml soluble anti-CD28 (BD). Tranilast, 3-HAA, or vehicle (DMSO) were incubated at concentrations stated with the cultures. 48 hours after stimulation, 100 μl culture medium was collected, and cells were pulsed with 1 μCi ^3H thymidine per well for 18 h. Cells were then harvested and plates assessed for incorporation. Each assay was performed on a minimum of 3 occasions. Data shown is of one representative experiment, and is expressed as mean+/−SD of triplicate in culture. IFN-γ, IL-10 and IL-5 levels was assessed in the culture medium by ELISA, as above.

[4] = tested on: T cells stimulated with anti-CD3/anti-CD28; experiment: Cytokine production by stimulated T cells in vitro (ELISA); assay type: cell-based, mouse
Protocol: as §1, §2

SMILES: COc1ccc(/C=C/C(=O)Nc2ccccc2C(=O)O)cc1OC [Tranilast, 2-[[3-(3,4-dimethoxyphenyl)-1-oxo-2-propenyl]amino]benzoic acid]
- Histological score (mean ± SE) ([1]; 100 mg/kg/day i.p.): 1.64 ± 0.35
- Histological score (mean ± SE) ([1]; 200 mg/kg/day i.p.): 1.19 ± 0.35
- Histological score (mean ± SE) ([1]; 400 mg/kg/day i.p.): 0.57 ± 0.20
- clinical scores ([1]; 100, 200 or 400 mg/kg/day i.p., 10 days (FIG. 1)): reduced clinical scores in a dose-dependent fashion
- paw-swelling ([1]; 100, 200 or 400 mg/kg/day i.p., 10 days (FIG. 2)): reduced paw-swelling in a dose-dependent fashion
- synovitis, cartilage loss and bone erosion (histology) ([1]; compared to control mice, end of 10 day treatment): reduced level of synovitis, cartilage loss and bone erosion
- IFN-γ production by lymph node cells ([2]; cultured 72 h, mice given 400 mg/kg for 10 days (FIG. 8)): significantly reduced
- IL-5 production by lymph node cells ([2]; cultured 72 h): unaffected
- IL-5 production by lymph node cells ([2]; cultured 72 h, listed as 3,4-DAA): significantly reduced
- cytokine production on restimulation with collagen ([2]; cultured 72 h in the presence of type II collagen (FIG. 8)): differences between the groups were not significant
- pIC50 ([3]; Mus musculus, B-cell, anti-CD40, 72 h, 3H-thymidine (FIG. 10A), read-out: IC50 for inhibition of B cell proliferation): 4.14
- B cell proliferation ([3]; anti-CD40, varying doses (FIG. 10A)): dose-dependently inhibited
- IFN-γ production by T-cells ([4]; FIG. 10C): dose-dependently reduced
- IL-10 production by T-cells ([4]; FIG. 10D): dose-dependently inhibited
- IL-5 production by T-cells ([4]; FIG. 10E): dose-dependently inhibited

Source: patent US20100041756A1, “METHOD OF MODULATING B CELL FUNCTIONING” (priority 2004, published 2010)
